# Laboratory results reported in PubChem BioAssay (NCI).
#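 Protocol summary: plate cells (96-well), add compound at 5 concentrations, incubate 48 h, interpolate endpoints linearly. At the GI50, growth is halved. TGI denotes the concentration required for complete inhibition of growth.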
# Key:
# Test in all cases: DTP human tumour cell line panel, 48 h
# SNB-75 CNS = system: SNB-75 CNS
# SR leukemia = system: SR leukemia
# UO-31 renal = system: UO-31 renal
# HCT-116 colon = system: HCT-116 colon
# HOP-92 NSCLC = system: HOP-92 NSCLC
# OVCAR-5 ovarian = system: OVCAR-5 ovarian
# NCI/ADR-RES ovarian = system: NCI/ADR-RES ovarian
# SF-295 CNS = system: SF-295 CNS
# IGROV1 ovarian = system: IGROV1 ovarian
# HS 578T breast = system: HS 578T breast
# MALME-3M melanoma = system: MALME-3M melanoma
# OVCAR-8 ovarian = system: OVCAR-8 ovarian
# A549 NSCLC = system: A549 NSCLC
# SK-OV-3 ovarian = system: SK-OV-3 ovarian
# M14 melanoma = system: M14 melanoma
# T-47D breast = system: T-47D breast
# SW-620 colon = system: SW-620 colon
# TK-10 renal = system: TK-10 renal
# U251 CNS = system: U251 CNS
# MCF7 breast = system: MCF7 breast
# RPMI-8226 leukemia = system: RPMI-8226 leukemia
# MDA-MB-231 breast = system: MDA-MB-231 breast
# NCI-H23 lung = system: NCI-H23 lung
# HCC-2998 colon = system: HCC-2998 colon
# CCRF-CEM leukemia = system: CCRF-CEM leukemia
# KM12 colon = system: KM12 colon
# ACHN renal = system: ACHN renal
# COLO 205 colon = system: COLO 205 colon
# HCT-15 colon = system: HCT-15 colon
# MDA-MB-435 = system: MDA-MB-435
# NCI-H460 lung = system: NCI-H460 lung
# K-562 leukemia = system: K-562 leukemia
# 786-0 renal = system: 786-0 renal
# SK-MEL-28 melanoma = system: SK-MEL-28 melanoma
# A498 renal = system: A498 renal
# SNB-19 CNS = system: SNB-19 CNS
# HOP-62 NSCLC = system: HOP-62 NSCLC
# OVCAR-4 ovarian = system: OVCAR-4 ovarian
# HT29 colon = system: HT29 colon
# UACC-257 melanoma = system: UACC-257 melanoma
# RXF 393 renal = system: RXF 393 renal
# SK-MEL-5 melanoma = system: SK-MEL-5 melanoma
# UACC-62 melanoma = system: UACC-62 melanoma
# DU-145 prostate = system: DU-145 prostate
# SF-268 CNS = system: SF-268 CNS
# NCI-H226 lung = system: NCI-H226 lung
# MOLT-4 leukemia = system: MOLT-4 leukemia
# SN12C renal = system: SN12C renal
# HL-60(TB) leukemia = system: HL-60(TB) leukemia
# EKVX NSCLC = system: EKVX NSCLC
# SF-539 CNS = system: SF-539 CNS
# NCI-H522 lung = system: NCI-H522 lung
# BT-549 breast = system: BT-549 breast
# PC-3 prostate = system: PC-3 prostate
# LOX IMVI melanoma = system: LOX IMVI melanoma
# OVCAR-3 ovarian = system: OVCAR-3 ovarian
# SK-MEL-2 melanoma = system: SK-MEL-2 melanoma
structure (smiles),measurement,setting,value
CN(C)c1ccc(-c2[nH]c(=O)c3ccccc3[n+]2C)cc1,TGI,SNB-75 CNS,> 100 µM
same,TGI,SR leukemia,> 100 µM
same,TGI,UO-31 renal,> 100 µM
same,TGI,HCT-116 colon,> 100 µM
same,TGI,HOP-92 NSCLC,> 100 µM
same,TGI,OVCAR-5 ovarian,> 100 µM
same,TGI,NCI/ADR-RES ovarian,> 100 µM
same,TGI,SF-295 CNS,> 100 µM
same,TGI,IGROV1 ovarian,> 100 µM
same,TGI,HS 578T breast,> 100 µM
same,TGI,MALME-3M melanoma,> 100 µM
same,TGI,OVCAR-8 ovarian,> 100 µM
same,TGI,A549 NSCLC,> 100 µM
same,TGI,SK-OV-3 ovarian,> 100 µM
same,TGI,M14 melanoma,> 100 µM
same,TGI,T-47D breast,> 100 µM
same,TGI,SW-620 colon,> 100 µM
same,TGI,TK-10 renal,> 100 µM
same,TGI,U251 CNS,> 100 µM
same,TGI,MCF7 breast,> 100 µM
same,TGI,RPMI-8226 leukemia,> 100 µM
same,TGI,MDA-MB-231 breast,> 100 µM
same,TGI,NCI-H23 lung,> 100 µM
same,TGI,HCC-2998 colon,> 100 µM
same,TGI,CCRF-CEM leukemia,> 100 µM
same,TGI,KM12 colon,> 100 µM
same,TGI,ACHN renal,> 100 µM
same,TGI,COLO 205 colon,> 100 µM
same,TGI,HCT-15 colon,> 100 µM
same,TGI,MDA-MB-435,> 100 µM
same,TGI,NCI-H460 lung,> 100 µM
same,TGI,K-562 leukemia,> 100 µM
same,TGI,786-0 renal,> 100 µM
same,TGI,SK-MEL-28 melanoma,> 100 µM
same,TGI,A498 renal,> 100 µM
same,TGI,SNB-19 CNS,> 100 µM
same,TGI,HOP-62 NSCLC,> 100 µM
same,TGI,OVCAR-4 ovarian,> 100 µM
same,TGI,HT29 colon,> 100 µM
same,TGI,UACC-257 melanoma,> 100 µM
same,TGI,RXF 393 renal,> 100 µM
same,TGI,SK-MEL-5 melanoma,> 100 µM
same,TGI,UACC-62 melanoma,> 100 µM
same,TGI,DU-145 prostate,> 100 µM
same,TGI,SF-268 CNS,> 100 µM
same,TGI,NCI-H226 lung,> 100 µM
same,TGI,MOLT-4 leukemia,> 100 µM
same,TGI,SN12C renal,> 100 µM
same,TGI,HL-60(TB) leukemia,> 100 µM
same,TGI,EKVX NSCLC,> 100 µM
same,TGI,SF-539 CNS,> 100 µM
CCN1CCN(c2cc(C)nc(N(CCCNc3ccnc4cc(Cl)ccc34)Cc3cccs3)n2)CC1,GI50,SNB-75 CNS,1.5 µM
same,TGI,SNB-75 CNS,3.2 µM
same,GI50,SR leukemia,1.29 µM
same,TGI,SR leukemia,3.23 µM
same,GI50,NCI-H522 lung,1.81 µM
same,TGI,NCI-H522 lung,3.81 µM
same,GI50,UO-31 renal,1.33 µM
same,TGI,UO-31 renal,2.88 µM
same,GI50,HCT-116 colon,1.32 µM
same,TGI,HCT-116 colon,10.4 µM
same,GI50,HOP-92 NSCLC,1.55 µM
same,TGI,HOP-92 NSCLC,3.79 µM
same,GI50,OVCAR-5 ovarian,3.97 µM
same,TGI,OVCAR-5 ovarian,15.3 µM
same,GI50,NCI/ADR-RES ovarian,2.96 µM
same,TGI,NCI/ADR-RES ovarian,16.8 µM
same,GI50,BT-549 breast,1.93 µM
same,TGI,BT-549 breast,5.04 µM
same,GI50,SF-295 CNS,1.84 µM
same,TGI,SF-295 CNS,3.73 µM
same,GI50,IGROV1 ovarian,2.11 µM
same,TGI,IGROV1 ovarian,6.58 µM
same,GI50,HS 578T breast,2.02 µM
same,TGI,HS 578T breast,5.02 µM
same,GI50,PC-3 prostate,3.11 µM
same,TGI,PC-3 prostate,15.9 µM
same,GI50,MALME-3M melanoma,2.01 µM
same,TGI,MALME-3M melanoma,3.7 µM
same,GI50,OVCAR-8 ovarian,3.06 µM
same,TGI,OVCAR-8 ovarian,10.9 µM
same,GI50,A549 NSCLC,3.22 µM
same,TGI,A549 NSCLC,14.4 µM
same,GI50,SK-OV-3 ovarian,3.29 µM
same,TGI,SK-OV-3 ovarian,10.5 µM
same,GI50,M14 melanoma,1.8 µM
same,TGI,M14 melanoma,3.51 µM
same,GI50,T-47D breast,2.29 µM
same,TGI,T-47D breast,6.89 µM
same,GI50,LOX IMVI melanoma,1.84 µM
same,TGI,LOX IMVI melanoma,3.59 µM
same,GI50,SW-620 colon,1.59 µM
same,TGI,SW-620 colon,3.86 µM
same,GI50,TK-10 renal,1.82 µM
same,TGI,TK-10 renal,4.09 µM
same,GI50,U251 CNS,2.22 µM
same,TGI,U251 CNS,7.05 µM
same,GI50,MCF7 breast,2.22 µM
same,TGI,MCF7 breast,10.3 µM
same,GI50,RPMI-8226 leukemia,1.57 µM
same,TGI,RPMI-8226 leukemia,4.82 µM
same,GI50,MDA-MB-231 breast,1.4 µM
same,TGI,MDA-MB-231 breast,3.56 µM
same,GI50,OVCAR-3 ovarian,1.83 µM
same,TGI,OVCAR-3 ovarian,6.03 µM
same,GI50,NCI-H23 lung,3.21 µM
same,TGI,NCI-H23 lung,14.3 µM
same,GI50,HCC-2998 colon,1.98 µM
same,TGI,HCC-2998 colon,4.58 µM
same,GI50,CCRF-CEM leukemia,2.7 µM
same,TGI,CCRF-CEM leukemia,12.5 µM
same,GI50,KM12 colon,2.62 µM
same,TGI,KM12 colon,12.7 µM
same,GI50,ACHN renal,3.38 µM
same,TGI,ACHN renal,9.22 µM
same,GI50,COLO 205 colon,1.57 µM
same,TGI,COLO 205 colon,3.32 µM
same,GI50,HCT-15 colon,1.33 µM
same,TGI,HCT-15 colon,4.51 µM
same,GI50,MDA-MB-435,1.59 µM
same,TGI,MDA-MB-435,2.95 µM
same,GI50,NCI-H460 lung,2.47 µM
same,TGI,NCI-H460 lung,7.84 µM
same,GI50,K-562 leukemia,0.525 µM
same,TGI,K-562 leukemia,2.29 µM
same,GI50,786-0 renal,1.56 µM
same,TGI,786-0 renal,3.58 µM
same,GI50,SK-MEL-28 melanoma,1.82 µM
same,TGI,SK-MEL-28 melanoma,3.39 µM
same,GI50,A498 renal,2.41 µM
same,TGI,A498 renal,7.13 µM
same,GI50,SNB-19 CNS,3.88 µM
same,TGI,SNB-19 CNS,13.9 µM
same,GI50,HOP-62 NSCLC,2.79 µM
same,TGI,HOP-62 NSCLC,15.2 µM
same,GI50,OVCAR-4 ovarian,2.11 µM
same,TGI,OVCAR-4 ovarian,12.7 µM
same,GI50,SK-MEL-2 melanoma,1.98 µM
same,TGI,SK-MEL-2 melanoma,3.92 µM
same,GI50,HT29 colon,1.31 µM
same,TGI,HT29 colon,4.33 µM
same,GI50,UACC-257 melanoma,2.1 µM
same,TGI,UACC-257 melanoma,3.94 µM
same,GI50,RXF 393 renal,1.45 µM
same,TGI,RXF 393 renal,3.17 µM
same,GI50,SK-MEL-5 melanoma,1.72 µM
same,TGI,SK-MEL-5 melanoma,3.11 µM
same,GI50,UACC-62 melanoma,1.93 µM
same,TGI,UACC-62 melanoma,3.56 µM
same,GI50,SF-268 CNS,2.03 µM
same,TGI,SF-268 CNS,6.62 µM
same,GI50,NCI-H226 lung,8.12 µM
same,TGI,NCI-H226 lung,31.5 µM
same,GI50,MOLT-4 leukemia,1.62 µM
same,TGI,MOLT-4 leukemia,6.12 µM
same,GI50,SN12C renal,3.35 µM
same,TGI,SN12C renal,14 µM
same,GI50,HL-60(TB) leukemia,2.14 µM
same,TGI,HL-60(TB) leukemia,4.15 µM
same,GI50,EKVX NSCLC,3.88 µM
same,TGI,EKVX NSCLC,16.6 µM
same,GI50,SF-539 CNS,1.76 µM
same,TGI,SF-539 CNS,3.33 µM
